Twelve compounds from patent US12448388B2, “PRMT5 inhibitors and uses thereof” (Gilead Sciences, Inc., priority 2023, dated 2025) can be followed below.

The subject of this test is HCT116 MTAP-deleted cell lines. Briefly: Cell viability assay (CellTiter-Glo, 7 days), HCT116 MTAP-deleted. Format: cell-based. The conditions noted are these: Homo sapiens, HCT-116, HCT116 MTAP-deleted, class symbols, read-out: CC50. The method, boiled down:
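Each PRMT5 inhibitor was tested as a dose response alongside tool compounds on the same plate. Incubation ran 7 days at 37 °C under 5% CO2, after which CellTiter-Glo luminescence was recorded and CC50 calculated.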

Read-outs that look alike come from different tables or passages of the source.

In the case of `CN(C(=O)c1cc2c(cc1F)nc(N)c1cncn12)C1CCOc2cc(C(F)(F)F)ccc21` (stereo not drawn) [Ff-40, 4-amino-7-fluoro-N-methyl-N-(7-(trifluoromethyl)chroman-4-yl)imidazo[1,5-a]quinoxaline-8-carboxamide], the CC50 (cell viability) was in the range of 100 to 1000 nM. As for `CN(C(=O)c1cc2c(cc1F)nc(N)c1cncn12)C1COc2cc(Cl)c(Br)cc21` (stereo not drawn) [Ff-608, 4-amino-N-(5-bromo-6-chloro-2,3-dihydrobenzofuran-3-yl)-7-fluoro-N-methylimidazo[1,5-a]quinoxaline-8-carboxamide], under “cell viability assay”, the CC50 is less than 100 nM. For `Cn1cc(-c2ccc(CN(C(=O)c3cc4c(cc3F)nc(N)c3cncn34)C34CC(C3)C4)c(F)c2)cn1` [Ff-204, 4-amino-N-(bicyclo[1.1.1]pentan-1-yl)-7-fluoro-N-(2-fluoro-4-(1-methyl-1H-pyrazol-4-yl)benzyl)imidazo[1,5-a]quinoxaline-8-carboxamide], the CC50 (cell viability) is less than 100 nM. For `Nc1nc2cc(F)c(C(=O)N3CCO[C@H]4Cc5cc(Br)ccc5[C@H]43)cc2n2cncc12` (single isomer, unassigned) [Ff-75], the CC50 (cell viability) fell in the range of 100 to 1000 nM. Turning to `CN(C(=O)c1cc2c(cc1F)nc(N)c1cncn12)[C@@H]1COc2cc(C#CC(C)(C)C#N)ccc21` [Ff-439, 4-amino-N-[(3S)-6-(3-cyano-3-methyl-but-1-ynyl)-2,3-dihydrobenzofuran-3-yl]-7-fluoro-N-methyl-imidazo[1,5-a]quinoxaline-8-carboxamide], where the note is “cell viability assay”, the CC50 is less than 100 nM. Regarding `Nc1nc2cc(F)c(C(=O)N3C[C@H](F)CC[C@H]3c3ccc(C(F)(F)F)cn3)cc2n2cncc12` (single isomer, unassigned) [Ff-245], the CC50 (cell viability) was in the range of 100 to 1000 nM.

For `Nc1nc2cc(F)c(C(=O)N3CCC[C@@H]4OCc5cc(-c6cnn(C7CC7)c6)ccc5[C@@H]43)cc2n2cncc12` (racemic) [Ff-297, Rac-(4-amino-7-fluoroimidazo[1,5-a]quinoxalin-8-yl)((4aS,10bS)-8-(1-cyclopropyl-1H-pyrazol-4-yl)-2,3,4,4a,6,10b-hexahydro-1H-isochromeno[4,3-b]pyridin-1-yl)methanone], the CC50 (cell viability) was less than 100 nM.

For the compound `C[C@@H]1COC[C@H](c2ccc(C(F)(F)F)cn2)N1C(=O)c1cc2c(cc1F)nc(N)c1cncn12` [Ff-131, (4-amino-7-fluoroimidazo[1,5-a]quinoxalin-8-yl)((3R,5S)-3-methyl-5-(5-(trifluoromethyl)pyridin-2-yl)morpholino)methanone], the CC50 (cell viability) is less than 100 nM.

With `Nc1nc2cnc(C(=O)N3CCO[C@@H]4Cc5cc(OC(F)(F)F)c(F)cc5[C@@H]43)cc2n2cncc12` [Ff-178, (4-aminoimidazo[1,5-a]pyrido[3,4-e]pyrazin-8-yl)((4aS,9aR)-6-fluoro-7-(trifluoromethoxy)-2,3,9,9a-tetrahydroindeno[2,1-b][1,4]oxazin-4(4aH)-yl)methanone], for the setting “cell viability”, the CC50 is less than 100 nM. Turning to `CN(C(=O)c1cc2c(cc1F)nc(N)c1cncn12)[C@H]1c2ccc(Br)cc2C[C@H]1OC(F)F` [Ff-582, 4-amino-N-((1S,2R)-5-bromo-2-(difluoromethoxy)-2,3-dihydro-1H-inden-1-yl)-7-fluoro-N-methylimidazo[1,5-a]quinoxaline-8-carboxamide], the CC50 (cell viability assay) lay within 100 to 1000 nM. The same measure, in the same setting: then `COc1cc(-c2cnn(C(F)(F)F)c2)ccc1CN(C)C(=O)c1cc2c(cc1F)nc(N)c1cncn12` [Ff-554, 4-amino-N-(4-(1-(trifluoromethyl)-1H-pyrazol-4-yl)-2-methoxybenzyl)-7-fluoro-N-methylimidazo[1,5-a]quinoxaline-8-carboxamide], with 100 to 1000 nM. On to `Nc1nc2cc(F)c(C(=O)N3CCC[C@@H]4Oc5cc(Cl)ccc5[C@@H]43)cc2n2cncc12` [Ff-260, (4-amino-7-fluoroimidazo[1,5-a]quinoxalin-8-yl)((4aS,9bS)-7-chloro-3,4,4a,9b-tetrahydrobenzofuro[3,2-b]pyridin-1(2H)-yl)methanone], for which the CC50 (cell viability) was less than 100 nM.
